Test results from publication PMC10180054, “Design, Synthesis and Biological Evaluation of Novel Pleuromutilin Derivatives Containing 6-Chloro-1-R-1H-pyrazolo[3,4-d]pyrimidine-4-amino Side Chain” (Molecules, 2023).
In brackets after ≈: the same amount, converted by molar mass.

Experiments:
[1] = system: MRSA ATCC 43300; assay: MIC/MBC by broth dilution (CLSI); type: cell-based, Staphylococcus aureus; conditions: Staphylococcus aureus; for MIC: MRSA ATCC 43300, broth dilution, 24 h, 37 °C, read-out: MIC; for MBC: MRSA ATCC 43300, 99.9% of the bacteria killed
Method: (§1) The in vitro antimicrobial activity of the pleuromutilin derivatives was assessed against MRSA ATCC 43300, S. aureus ATCC 29213, S. aureus 144 and S. aureus AD3 according to the Clinical and Laboratory Standards Institute (CLSI). Tiamulin was used as a positive control drug. The results were summarized as the minimum inhibitory concentration (MIC) and the minimum bactericidal concentration (MBC) in Table 1 and Table 2. In addition, MIC results for the pleuromutilin derivatives against four Gram-negative bacteria are supplied in Tables S2 and S3.
(§2) The MIC and MBC values of the synthesized novel pleuromutilin derivatives against MRSA ATCC 43300, S. aureus ATCC 29213, S. aureus 144 and S. aureus AD3 were measured. Tiamulin was used as a positive control drug. The MIC and MBC values were manipulated by broth dilution according to the Clinical and Laboratory Standards (CLSI). Each compound to be measured was dissolved in a solution of 95% deionized water, 2.5% dimethyl sulfoxide (DMSO) and 2.5% Tween-80 with a concentration of 1280 µg/mL. Subsequently, serial twofold dilutions were made in a concentration range from 64 µg/mL to 0.0625 µg/mL. The working bacterial suspension was inoculated into each well, which provided the final inoculum density of 5 × 10^5 CFU/mL. Three parallel experiments were performed for each compound.
(§3) Overall, 25 µL of the bacterial solution from the wells with no obvious bacterial growth was inoculated on MH agar plates. Then, the inoculated MH agar plates were further cultured at 37 °C for 24 h.

[2] = system: S. aureus 144; assay: MIC/MBC by broth dilution (CLSI); type: cell-based; conditions: Staphylococcus aureus; S. aureus 144 (clinical strain)
Method: as §1, §2, §3

[3] = system: S. aureus AD3; assay: MIC/MBC by broth dilution (CLSI); type: cell-based; conditions: Staphylococcus aureus, S. aureus AD3 (clinical strain)
Method: as §1, §2, §3

[4] = system: S. aureus ATCC 29213; assay: MIC/MBC by broth dilution (CLSI); type: cell-based; conditions: Staphylococcus aureus; for MIC: S. aureus ATCC 29213, broth dilution, 24 h, 37 °C; for MBC: S. aureus ATCC 29213
Method: as §1, §2, §3

| Structure (SMILES) | MIC [1] [µg/mL] | MIC [2] [µg/mL] | MIC [3] [µg/mL] | MIC ([4]; ATCC29213) [µg/mL] | melting point [°C] | MBC [1] [µg/mL] | MBC [2] [µg/mL] | MBC ([3]; 24 h) [µg/mL] | MIC ([3]; 24 h) [µg/mL] | MBC ([4]; ATCC29213) [µg/mL] | MBC ([4]; ATCC29213, 24 h) [µg/mL] | MBC [3] [µg/mL] |
| --- | --- | --- | --- | --- | --- | --- | --- | --- | --- | --- | --- | --- |
| C=C[C@]1(C)C[C@@H](OC(=O)CSc2ccc(Nc3nc(Cl)nc4c3cnn4-c3ccccc3F)cc2)[C@]2(C)[C@H](C)CC[C@]3(CCC(=O)[C@H]32)[C@@H](C)[C@@H]1O [Compound 18c, 22-[4-(6-Chloro-1-(2-fluorophenyl)-1H-pyrazolo[3,4-d]pyrimidine-4-yl)amino-Phenylsulfanyl]-22-deoxypleuromutilin] | > 64 | > 64 | > 64 | > 64 | 123 to 127 |  |  |  |  |  |  |  |
| C=C[C@]1(C)C[C@@H](OC(=O)CNc2nc(Cl)nc3c2cnn3-c2ccc(F)cc2)[C@]2(C)[C@H](C)CC[C@]3(CCC(=O)[C@H]32)[C@@H](C)[C@@H]1O [Compound 19b, 22-[(6-Chloro-1-(4-fluorophenyl)-1H-pyrazolo[3,4-d]pyrimidine-4-yl)amino]-22-deoxypleuromutilin] | 16 (≈ 25.6 µM) | 32 (≈ 51.3 µM) |  | 16 (≈ 25.6 µM) | 112 to 115 | > 64 | > 64 | > 64 | 8 (≈ 12.8 µM) | > 64 |  |  |
| C=C[C@]1(C)C[C@@H](OC(=O)CNc2nc(Cl)nc3c2cnn3-c2ccc(F)cc2F)[C@]2(C)[C@H](C)CC[C@]3(CCC(=O)[C@H]32)[C@@H](C)[C@@H]1O [Compound 20b, 22-[(6-Chloro-1-(2,4-difluorophenyl)-1H-pyrazolo[3,4-d]pyrimidine-4-yl)amino]-22-deoxypleuromutilin] | > 64 | > 64 | > 64 | > 64 | 123 to 125 |  |  |  |  |  |  |  |
| C=C[C@]1(C)C[C@@H](OC(=O)CSc2ccc(Nc3nc(Cl)nc4c3cnn4-c3ccc(F)cc3F)cc2)[C@]2(C)[C@H](C)CC[C@]3(CCC(=O)[C@H]32)[C@@H](C)[C@@H]1O [Compound 20c, 22-[4-(6-Chloro-1-(2,4-difluorophenyl)-1H-pyrazolo[3,4-d]pyrimidine-4-yl)amino-Phenylsulfanyl]-22-deoxypleuromutilin] | > 64 | > 64 | > 64 | > 64 | 132 to 134 |  |  |  |  |  |  |  |
| C=C[C@]1(C)C[C@@H](OC(=O)CNc2nc(Cl)nc3c2cnn3-c2cc(F)ccc2F)[C@]2(C)[C@H](C)CC[C@]3(CCC(=O)[C@H]32)[C@@H](C)[C@@H]1O [Compound 21b, 22-[(6-Chloro-1-(2,5-difluorophenyl)-1H-pyrazolo[3,4-d]pyrimidine-4-yl)amino]-22-deoxypleuromutilin] | > 64 | > 64 | > 64 | > 64 | 121 to 125 |  |  |  |  |  |  |  |
| C=C[C@]1(C)C[C@@H](OC(=O)CSc2ccc(Nc3nc(Cl)nc4c3cnn4-c3cc(F)ccc3F)cc2)[C@]2(C)[C@H](C)CC[C@]3(CCC(=O)[C@H]32)[C@@H](C)[C@@H]1O [Compound 21c, 22-[4-(6-Chloro-1-(2,5-difluorophenyl)-1H-pyrazolo[3,4-d]pyrimidine-4-yl)amino-Phenylsulfanyl]-22-deoxypleuromutilin] | > 64 | > 64 | > 64 | > 64 | 115 to 118 |  |  |  |  |  |  |  |
| C=C[C@]1(C)C[C@@H](OC(=O)CNc2nc(Cl)nc3c2cnn3-c2ccc(F)c(F)c2)[C@]2(C)[C@H](C)CC[C@]3(CCC(=O)[C@H]32)[C@@H](C)[C@@H]1O [Compound 22b, 22-[(6-Chloro-1-(3,4-difluorophenyl)-1H-pyrazolo[3,4-d]pyrimidine-4-yl)amino]-22-deoxypleuromutilin] | 16 (≈ 24.9 µM) | 16 (≈ 24.9 µM) |  | 8 (≈ 12.5 µM) | 130 to 132 | > 64 | > 64 | > 64 | 8 (≈ 12.5 µM) |  | > 64 |  |
| C=C[C@]1(C)C[C@@H](OC(=O)CSc2ccc(Nc3nc(Cl)nc4c3cnn4-c3ccc(OC(F)(F)F)cc3)cc2)[C@]2(C)[C@H](C)CC[C@]3(CCC(=O)[C@H]32)[C@@H](C)[C@@H]1O [Compound 23c, 22-[4-(6-Chloro-1-(4-(yrifluoromethoxy)Phenyl)-1H-pyrazolo[3,4-d]pyrimidine-4-yl)amino-Phenylsulfanyl]-22-deoxypleuromutilin] | 0.5 (≈ 0.626 µM) | 1 (≈ 1.25 µM) | 0.25 (≈ 0.313 µM) | 0.5 (≈ 0.626 µM) | 144 to 147 | 1 (≈ 1.25 µM) | 2 (≈ 2.51 µM) |  |  | 1 (≈ 1.25 µM) |  | 1 (≈ 1.25 µM) |
| C=C[C@]1(C)C[C@@H](OC(=O)CNc2nc(Cl)nc3c2cnn3-c2cccc(Cl)c2)[C@]2(C)[C@H](C)CC[C@]3(CCC(=O)[C@H]32)[C@@H](C)[C@@H]1O [Compound 24b, 22-[(6-Chloro-1-(3-chlorophenyl)-1H-pyrazolo[3,4-d]pyrimidine-4-yl)amino]-22-deoxypleuromutilin] | > 64 | > 64 | > 64 | > 64 | 117 to 119 |  |  |  |  |  |  |  |
| C=C[C@]1(C)C[C@@H](OC(=O)CSc2ccc(Nc3nc(Cl)nc4c3cnn4-c3cccc(Cl)c3)cc2)[C@]2(C)[C@H](C)CC[C@]3(CCC(=O)[C@H]32)[C@@H](C)[C@@H]1O [Compound 24c, 22-[4-(6-Chloro-1-(3-chlorophenyl)-1H-pyrazolo[3,4-d]pyrimidine-4-yl)amino-Phenylsulfanyl]-22-deoxypleuromutilin] | > 64 | > 64 | > 64 | > 64 | 121 to 124 |  |  |  |  |  |  |  |
| C=C[C@]1(C)C[C@@H](OC(=O)CNc2nc(Cl)nc3c2cnn3-c2ccc(Cl)cc2)[C@]2(C)[C@H](C)CC[C@]3(CCC(=O)[C@H]32)[C@@H](C)[C@@H]1O [Compound 25b, 22-[(6-Chloro-1-(4-chlorophenyl)-1H-pyrazolo[3,4-d]pyrimidine-4-yl)amino]-22-deoxypleuromutilin] | > 64 | > 64 | > 64 | > 64 | 107 to 111 |  |  |  |  |  |  |  |
| C=C[C@]1(C)C[C@@H](OC(=O)CSc2ccc(Nc3nc(Cl)nc4c3cnn4-c3ccc(Cl)cc3)cc2)[C@]2(C)[C@H](C)CC[C@]3(CCC(=O)[C@H]32)[C@@H](C)[C@@H]1O [Compound 25c, 22-[4-(6-Chloro-1-(4-chlorophenyl)-1H-pyrazolo[3,4-d]pyrimidine-4-yl)amino-Phenylsulfanyl]-22-deoxypleuromutilin] | 8 (≈ 10.7 µM) | > 64 | 8 (≈ 10.7 µM) | 16 (≈ 21.4 µM) | 124 to 129 | 16 (≈ 21.4 µM) |  |  |  | > 64 |  | 32 (≈ 42.7 µM) |
| C=C[C@]1(C)C[C@@H](OC(=O)CNc2nc(Cl)nc3c2cnn3-c2cc(Cl)cc(Cl)c2)[C@]2(C)[C@H](C)CC[C@]3(CCC(=O)[C@H]32)[C@@H](C)[C@@H]1O [Compound 26b, 22-[(6-Chloro-1-(3,5-dichlorophenyl)-1H-pyrazolo[3,4-d]pyrimidine-4-yl)amino]-22-deoxypleuromutilin] | > 64 | > 64 | > 64 | > 64 | 151 to 156 |  |  |  |  |  |  |  |
| C=C[C@]1(C)C[C@@H](OC(=O)CSc2ccc(Nc3nc(Cl)nc4c3cnn4-c3cc(Cl)cc(Cl)c3)cc2)[C@]2(C)[C@H](C)CC[C@]3(CCC(=O)[C@H]32)[C@@H](C)[C@@H]1O [Compound 26c, 22-[4-(6-Chloro-1-(3,5-dichlorophenyl)-1H-pyrazolo[3,4-d]pyrimidine-4-yl)amino-Phenylsulfanyl]-22-deoxypleuromutilin] | > 64 | > 64 | > 64 | > 64 | 137 to 139 |  |  |  |  |  |  |  |
